Experimental data: US20110045101A1, “FUNGICIDAL SUBSTITUTED AZOLES” (E.I. Du Pont De Nemours and Company, priority 2009, published 2011)
Marks after values point to notes of the source that are not given here.

Experiments:
Assay type in all cases: in vivo
Settings in all cases: 100 = 100% disease control
Botrytis cinerea = experiment: Test C: tomato Botrytis on tomato seedlings, sprayed the day before inoculation, visual disease rating
Method in brief: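 Rate: 200 ppm sprayed to run-off, corresponding to 500 g/ha; flagged values used 40 ppm. Vehicle was aqueous acetone (1:1) plus 250 ppm surfactant, compounds predissolved in acetone at 3% of volume. Plants were tomato seedlings.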

Alternaria solani = experiment: Test D: tomato early blight, sprayed the day before inoculation, visual disease rating
Method in brief: (§1)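 Plants received a run-off spray at 200 ppm (equivalent to 500 g/ha) or, for starred values, 40 ppm. Formulation used acetone at 3% of volume in a 50/50 acetone/water mix carrying 250 ppm Trem® 014.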

Septoria nodorum = experiment: Test F: wheat glume blotch on wheat seedlings, sprayed the day before inoculation, visual disease rating
Method in brief: as §1

Septoria tritici = experiment: Test G: wheat leaf blotch on wheat seedlings, sprayed the day before inoculation, visual disease rating
Method in brief: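 Disease was rated visually after Septoria tritici inoculation, 48 h saturated incubation at 24°C and 19 days in a 20°C growth chamber. Inoculation followed one day after run-off spraying of seedlings with compound at 200 ppm (≈500 g/ha) or, where marked, 40 ppm, formulated in acetone/water with surfactant.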

[1] = tested on: Puccinia recondita f. sp. tritici; experiment: Test I: wheat leaf rust on wheat seedlings, sprayed the day before inoculation, visual disease rating
Method in brief: as §1

[2] = tested on: Erysiphe graminis f. sp. tritici; experiment: Test J: wheat powdery mildew on wheat seedlings, sprayed the day before inoculation, visual disease rating
Method in brief: as §1

[3] = 200 ppm, 0 = no control relative to controls
[4] = 40 ppm (marked *), 0 = no control

SMILES | Test C disease control rating (Botrytis cinerea; [3]) [%] | Test D disease control rating (Alternaria solani; [3]) [%] | Test F disease control rating (Septoria nodorum; [3]) [%] | Test G disease control rating (Septoria tritici; [3]) [%] | Test I disease control rating [1, 3] [%] | Test J disease control rating [2, 3] [%] | Test C disease control rating (Botrytis cinerea; 200 ppm, 0 = no control) [%] | Test D disease control rating (Alternaria solani; 200 ppm, 0 = no control) [%] | Test F disease control rating (Septoria nodorum; 200 ppm, 0 = no control) [%] | Test G disease control rating (Septoria tritici; 200 ppm, 0 = no control) [%] | Test I disease control rating ([1]; 200 ppm, 0 = no control) [%] | Test J disease control rating ([2]; 200 ppm, 0 = no control) [%] | other results
CCc1nc(Cl)c(-c2c(F)cccc2F)n1-c1ccc(Cl)cc1 [compound 108] |  |  |  |  |  |  |  |  |  |  |  |  | Test C disease control rating (Botrytis cinerea; 40 ppm (marked *)): 100* %; Test D disease control rating (Alternaria solani; 40 ppm (marked *)): 100* %; Test F disease control rating (Septoria nodorum; 40 ppm (marked *)): 0* %; Test G disease control rating (Septoria tritici; 40 ppm (marked *)): 74* %; Test I disease control rating ([1]; 40 ppm (marked *)): 98* %; Test J disease control rating ([2]; 40 ppm (marked *)): 99* %
Cc1nc(Cl)c(-c2c(F)cccc2F)n1Cc1ccc(Cl)cc1 [compound 128] | 97 | 96 | 96 | 93 | 97 | 100 |  |  |  |  |  |  | 
Cc1ccc(-n2c(Br)nc(Cl)c2-c2c(F)ccc(F)c2Cl)cc1 [compound 197] |  |  |  |  |  |  | 99 | 99 | 0 | 93 | 100 | 100 | 
Fc1ccc(Cl)c(F)c1-c1c(Cl)nc(Br)n1-c1ccc(Cl)cc1 [compound 100] | 97 | 93 | 99 | 97 | 98 | 99 |  |  |  |  |  |  | 
Cc1nc(Cl)c(-c2c(F)ccc(F)c2Cl)n1-c1ccc(Cl)cc1 [compound 80] | 90 | 100 | 100 | 98 | 100 | 100 |  |  |  |  |  |  | 
COc1cc(F)c(-c2c(Cl)nc(Cl)n2-c2ccc(Cl)cc2)c(F)c1 [compound 239] |  |  |  |  |  |  | 100 | 100 | 100 | 96 | 99 | 100 | 
Cc1nc(Cl)c(-c2c(F)ccc(F)c2Cl)n1-c1ccc(Cl)c(F)c1 [compound 237] |  |  |  |  |  |  | 100 | 100 | 100 | 98 | 100 | 100 | 
CSc1ccc(F)c(-c2c(Cl)nc(C)n2-c2ccc(Cl)cc2)c1F [compound 235] |  |  |  |  |  |  | 99 | 99 | 92 | 99 | 97 | 99 | 
Fc1cccc(Cl)c1-c1c(Cl)nc(Br)n1-c1ccc(Cl)cc1 [compound 52] | 84 | 100 | 0 | 97 | 99 | 100 |  |  |  |  |  |  | 
COc1cc(F)c(-c2c(Cl)nc(C)n2-c2ccccc2)c(F)c1C [compound 439] | 97 | 100 | 95 | 94 | 100 | 100 |  |  |  |  |  |  | 
Cc1ccc(-n2c(C)nc(Cl)c2-c2c(F)cccc2Cl)cc1 [compound 190] |  |  |  |  |  |  | 97 | 100 | 0 | 93 | 100 | 100 | 
Fc1ccc(-n2c(Cl)nc(Cl)c2-c2ccc(F)cc2Cl)cc1 [compound 183] |  |  |  |  |  |  |  |  |  |  |  |  | Test C disease control rating (Botrytis cinerea; [4]): 99* %; Test D disease control rating (Alternaria solani; [4]): 91* %; Test F disease control rating (Septoria nodorum; [4]): 0* %; Test G disease control rating (Septoria tritici; [4]): 85* %; Test I disease control rating [1, 4]: 66* %; Test J disease control rating [2, 4]: 48* %
COc1cc(F)c(-n2c(Br)nc(Br)c2-c2ccc(Cl)cc2)c(F)c1 [compound 242] |  |  |  |  |  |  |  |  |  |  |  |  | Test C disease control rating (Botrytis cinerea; [4]): 99* %; Test D disease control rating (Alternaria solani; [4]): 95* %; Test F disease control rating (Septoria nodorum; [4]): 51* %; Test G disease control rating (Septoria tritici; [4]): 95* %; Test I disease control rating [1, 4]: 89* %; Test J disease control rating [2, 4]: 92* %
Cc1ncn(-c2ccc(Cl)c(F)c2)c1-c1ccncc1 [compound 253] |  |  |  |  |  |  | 94 | 0 | 0 | 91 | 74 | 0 | 
N#Cc1cc(F)c(-c2c(Cl)nc(Br)n2-c2ccc(Cl)cc2)c(F)c1 [compound 201] |  |  |  |  |  |  | 99 | 100 | 100 | 98 | 96 | 100 | 
